ChEMBL document CHEMBL1134748, “Identification and characterization of a potential ischemia-selective N-methyl-D-aspartate (NMDA) receptor ion-channel blocker, CNS 5788” (Bioorg Med Chem Lett, 2001)

Legend:
[1] = target: Sodium channel alpha subunits; brain (Types I, II, III) (Homo sapiens, UniProt P35498+Q99250+Q9NY46); test: Neuronal sodium channel blocking activity by [14C]guanidinium flux assay; format: functional
[2] = Cardiac sodium channel blocking activity by [14C]guanidinium flux assay; format: functional
[3] = target: Glutamate [NMDA] receptor; test: In vitro displacement of [3H]MK-801 from N-methyl-D-aspartate glutamate receptor; format: protein-complex assay
[4] = Half life value of the compound; format: ADME; details: rat
[5] = test system: Rattus norvegicus; test: Tested in rat middle cerebral artery occlusion model (MACO model) and percent reduction in total lesion volume at the dose of 4.5 mg/kg (combination ip and iv); details: route intraperitoneal
[6] = test system: Rattus norvegicus; test: Compound was tested in hypoxia -ischemia reduction model for percent reduction in lesion volume at the dose 10 mg/kg (ip)
[7] = test system: Rattus norvegicus; test: Compound was tested in rotarod motor assay and the effective intravenous dose required to fall from the rod was reported.; format: functional
[8] = species: Mus musculus; test: Effective dose required to block the audiogenic seizures.; format: functional
[9] = Lowest effective intravenous dose required to observe the behavioral effects (excitation); format: functional
[10] = test system: Rattus norvegicus; test: Compound was tested in hypoxia -ischemia reduction model for percent reduction in lesion volume at the dose 20 mg/kg (ip)
[11] = test system: Rattus norvegicus; test: Tested in rat middle cerebral artery occlusion model (MACO model) and percent reduction in total lesion volume at the dose of 1.5 mg/kg (combination ip and iv); format: functional; details: route intraperitoneal
[12] = test system: Rattus norvegicus; test: Compound was tested in hypoxia -ischemia reduction model for percent reduction in lesion volume at the dose 4 mg/kg (iv); format: functional

IC50 [1]	IC50 [2]	Ki [3]	T1/2 [4]	half-life [4]	Structure (SMILES)	Reduction [5]	Reduction [6]	ED50 [7]	ED50 [8]	Dose [9]	Reduction [10]	Reduction [11]	Reduction [12]
> 25 µM	81 µM	–	–	–	CN(C(=N)Nc1cc([S+](C)[O-])ccc1Cl)c1cccc([S+](C)[O-])c1 (centres undefined)	–	–	–	–	–	–	–	–
> 25 µM	26 µM	0.321 µM	–	–	CSc1ccc(Cl)c(NC(=N)N(C)c2cccc([S+](C)[O-])c2)c1 (single isomer, unassigned; (-))	–	–	–	–	–	–	–	–
> 25 µM	23.7 µM	0.233 µM	32 min	–	CSc1ccc(Cl)c(NC(=N)N(C)c2cccc([S+](C)[O-])c2)c1 (stereo in doubt; 15)	–	–	–	–	–	–	–	–
83.1 µM	26 µM	0.179 µM	–	31 min	CSc1ccc(Cl)c(NC(=N)N(C)c2cccc([S+](C)[O-])c2)c1 (stereo in doubt; 10)	32%	60%	8.8 mg/kg	12 mg/kg	4 mg/kg	100%	–	–
> 25 µM	29.5 µM	0.834 µM	–	–	CSc1cccc(N(C)C(=N)Nc2cc([S+](C)[O-])ccc2Cl)c1.Cl (centres undefined)	–	–	–	–	–	–	–	–

Structure (SMILES)	IC50 [1]	IC50 [2]	Ki [3]	T1/2 [4]	half-life [4]	Reduction [5]	Reduction [6]	ED50 [7]	ED50 [8]	Dose [9]	Reduction [10]	Reduction [11]	Reduction [12]
CSc1cccc(N(C)C(=N)Nc2cc(SC)ccc2Cl)c1 [CNS-5161]	1.75 µM	2.25 µM	–	–	–	–	–	0.14 mg/kg	0.9 mg/kg	0.25 mg/kg	–	33%	74%
